Experimental findings from patent US11584742B2 (MASARYKOVA UNIVERZITA, priority 2018, dated 2023) are described below.

This assay concerns the target T1, MRE11 (Homo sapiens, UniProt P49959).
T1 sequence (P49959 1-708): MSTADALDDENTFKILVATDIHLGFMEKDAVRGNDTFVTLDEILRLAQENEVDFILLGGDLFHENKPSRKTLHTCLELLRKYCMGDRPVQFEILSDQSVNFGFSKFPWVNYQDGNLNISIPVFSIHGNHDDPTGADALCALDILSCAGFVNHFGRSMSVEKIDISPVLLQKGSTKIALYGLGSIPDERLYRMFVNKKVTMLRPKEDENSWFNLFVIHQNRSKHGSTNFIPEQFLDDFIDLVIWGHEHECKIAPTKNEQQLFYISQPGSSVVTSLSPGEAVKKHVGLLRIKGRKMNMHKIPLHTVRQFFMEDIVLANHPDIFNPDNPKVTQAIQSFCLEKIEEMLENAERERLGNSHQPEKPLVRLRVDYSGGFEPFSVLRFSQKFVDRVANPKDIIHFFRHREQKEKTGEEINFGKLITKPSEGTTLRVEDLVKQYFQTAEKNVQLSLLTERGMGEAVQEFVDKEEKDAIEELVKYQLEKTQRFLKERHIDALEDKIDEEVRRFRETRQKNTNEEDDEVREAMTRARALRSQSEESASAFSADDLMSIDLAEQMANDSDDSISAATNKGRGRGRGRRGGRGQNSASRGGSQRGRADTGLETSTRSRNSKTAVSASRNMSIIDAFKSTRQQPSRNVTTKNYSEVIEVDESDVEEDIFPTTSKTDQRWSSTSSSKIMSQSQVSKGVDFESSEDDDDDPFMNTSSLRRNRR
Briefly: HTS nuclease assay (cleavage of CY5/BBQ-quenched 5' overhang DNA substrate). The assay is classed as biochemical. As to conditions: in vitro HTS nuclease assay; 18 nM MRE11, 40 nM DNA substrate; analysis at t=4 h. How it is done: DNA Substrate Preparation
The DNA substrate is prepared by mixing the oligonucleotides listed below in a 1:1 ratio to reach a final concentration of 6 μM in a buffer containing 50 mM Tris pH 7.5, 100 mM NaCl and 8 mM MgCl2.
This substrate is a 5′ overhang, which is a preferred substrate of MRE11. […] The fluorescence increases upon substrate cleavage by MRE11, when separation of the two labels occur.
The conditions of the assay are as follows:
Total reaction volume: 5 μL
DNA substrate concentration in the reaction: 40 nM
Inhibitor concentration range tested: 7 nM-50 μM
Each plate contains a series of high and low signal control wells, where no compound is added:
High signal: MRE11+DNA substrate
Low signal: DNA substrate only
These are used during data evaluation.
Two extra assay controls:
1) To check whether unwinding of DNA by the compounds alone occurs.
The DNA substrate [CY5+BBQ(650)] is mixed with the compounds with no protein present.
The CY5 single stranded oligo is mixed with the compounds with no protein present.
The layout of the plates is created by the in-house software (CZ-Openscreen Prague) and this information is transferred to the robotic HTS station.
The reaction is started by the addition of DNA and the reaction time is counted from that moment, including a 15 min delay. Ten timepoints are measured:
The assay data analysis was performed at t=4 h. This corresponds to the time when the reaction is close to its maximum.
The data analysis was performed using the in-house software to obtain IC50 for each compound.
`Cc1cc(/C=C(\C#N)C(=O)Nc2nc(-c3ccccn3)cs2)cc(C)c1O` [Preparative Example 248, (E)-2-cyano-3-(4-hydroxy-3,5-dimethylphenyl)-N-(4-(pyridin-2-yl)thiazol-2-yl)acrylamide] showed an IC50 of 10 to 90 µM.

`Cc1cc(/C=C(\C#N)C(=O)Nc2nc(-c3ncccc3F)cs2)cc(C)c1O` [Preparative Example 250, (E)-2-cyano-N-(4-(3-fluoropyridin-2-yl)thiazol-2-yl)-3-(4-hydroxy-3,5-dimethylphenyl)acrylamide] displayed an IC50 of 10 to 90 µM.

In the case of `N#C/C(=C\c1ccc(O)c(O)c1)C(=O)Nc1nc(-c2cccc(N3CCOCC3)n2)cs1` [Preparative Example 264, (E)-2-cyano-3-(3,4-dihydroxyphenyl)-N-(4-(6-morpholinopyridin-2-yl)thiazol-2-yl)acrylamide], the IC50 was 2 to 10 µM.

Molecule `N#C/C(=C\c1ccc(O)c(O)c1)C(=O)Nc1nc(Cc2ccccc2)cs1` [Preparative Example 273, (E)-N-(4-benzylthiazol-2-yl)-2-cyano-3-(3,4-dihydroxyphenyl)acrylamide] had an IC50 of under 2 µM.

Consider `N#C/C(=C\c1cc(O)c(O)c(Br)c1)C(=O)Nc1nc(-c2ccccc2)cs1` [Preparative Example 266, (E)-3-(3-bromo-4,5-dihydroxyphenyl)-2-cyano-N-(4-phenylthiazol-2-yl)acrylamide], for which the IC50 is under 2 µM.

On to `N#C/C(=C\c1ccc(O)c(C(N)=O)c1)C(=O)Nc1nc(-c2ccccc2)cs1` [Preparative Example 255, (E)-5-(2-cyano-3-oxo-3-((4-phenylthiazol-2-yl)amino)prop-1-en-1-yl)-2-hydroxybenzamide], for which the IC50 is 10 to 90 µM.

Regarding `N#C/C(=C\c1ccc(O)c(CO)c1)C(=O)Nc1nc(-c2ccccc2)cs1` [Preparative Example 260, (E)-2-cyano-3-(4-hydroxy-3-(hydroxymethyl)phenyl)-N-(4-phenylthiazol-2-yl)acrylamide], the IC50 was in the range of 2 to 10 µM.

Turning to `N#C/C(=C\c1cc(Cl)c(O)c(Cl)c1)C(=O)Nc1nc(-c2ncccc2F)cs1` [Preparative Example 252, (E)-2-cyano-3-(3,5-dichloro-4-hydroxyphenyl)-N-(4-(3-fluoropyridin-2-yl)thiazol-2-yl)acrylamide], the IC50 is under 2 µM.

Regarding `N#C/C(=C\c1cc(Br)c(O)c(Br)c1)C(=O)Nc1nc(-c2ccccn2)cs1` [Preparative Example 249, (E)-2-cyano-3-(3,5-dibromo-4-hydroxyphenyl)-N-(4-(pyridin-2-yl)thiazol-2-yl)acrylamide], the half-inhibitory concentration (IC50) is under 2 µM.

Regarding `N#C/C(=C\c1cc(O)c(O)c(C#N)c1)C(=O)Nc1nc(-c2ccccc2)cs1` [Preparative Example 269, (E)-2-cyano-3-(3-cyano-4,5-dihydroxyphenyl)-N-(4-phenylthiazol-2-yl)acrylamide], the concentration for half-maximal inhibition (IC50) was under 2 µM.

`N#C/C(=C\c1cc(O)c(O)c(Br)c1)C(=O)Nc1nc(-c2ncc(N3CCOCC3)cc2F)cs1` [Preparative Example 272, (E)-3-(3-bromo-4,5-dihydroxyphenyl)-2-cyano-N-(4-(3-fluoro-5-morpholinopyridin-2-yl)thiazol-2-yl)acrylamide] had an IC50 of under 2 µM.

In turn, `N#C/C(=C\c1ccc(O)c(Br)c1)C(=O)Nc1nc(-c2ccccc2)cs1` [Preparative Example 202, (E)-3-(3-bromo-4-hydroxyphenyl)-2-cyano-N-(4-phenylthiazol-2-yl)acrylamide] yielded an IC50 of 2 to 10 µM.

Take `N#C/C(=C\c1ccc(C(=O)O)c(O)c1)C(=O)Nc1nc(-c2ccccc2)cs1` [Preparative Example 259, (E)-4-(2-cyano-3-oxo-3-((4-phenylthiazol-2-yl)amino)prop-1-en-1-yl)-2-hydroxybenzoic acid]: the IC50 was 2 to 10 µM.

Molecule `N#C/C(=C\c1ccc(O)c(C(=O)O)c1)C(=O)Nc1nc(-c2ccccc2)cs1` [Preparative Example 254, (E)-5-(2-cyano-3-oxo-3-((4-phenylthiazol-2-yl)amino)prop-1-en-1-yl)-2-hydroxybenzoic acid] gave an IC50 of 10 to 90 µM.

Molecule `N#C/C(=C\c1ccc(O)cc1Br)C(=O)Nc1nc(-c2ccccc2)cs1` [Preparative Example 256, (E)-3-(2-bromo-4-hydroxyphenyl)-2-cyano-N-(4-phenylthiazol-2-yl)acrylamide] showed an IC50 of 10 to 90 µM.

As to `N#C/C(=C\c1ccc(O)c(O)c1)C(=O)Nc1nc(-c2ncc(N3CCOCC3)cc2F)cs1` [Preparative Example 270, (E)-2-cyano-3-(3,4-dihydroxyphenyl)-N-(4-(3-fluoro-5-morpholinopyridin-2-yl)thiazol-2-yl)acrylamide], the IC50 was under 2 µM.

As for `COC(=O)c1ccc(/C=C(\C#N)C(=O)Nc2nc(-c3ccccc3)cs2)cc1O` [Preparative Example 258, Methyl (E)-4-(2-cyano-3-oxo-3-((4-phenylthiazol-2-yl)amino)prop-1-en-1-yl)-2-hydroxybenzoate], the IC50 lay within 2 to 10 µM.

Turning to `N#C/C(=C\c1cc(O)c(O)c(F)c1)C(=O)Nc1nc(-c2ccccc2)cs1` [Preparative Example 267, (E)-2-cyano-3-(3-fluoro-4,5-dihydroxyphenyl)-N-(4-phenylthiazol-2-yl)acrylamide], the IC50 was under 2 µM.

Consider `N#C/C(=C\c1ccc(O)c(O)c1)C(=O)Nc1nc(C(=O)c2ccccc2)cs1` [Preparative Example 261, (E)-N-(4-benzoylthiazol-2-yl)-2-cyano-3-(3,4-dihydroxyphenyl)acrylamide], for which the IC50 was under 2 µM.

Regarding `COc1cc(/C=C(\C#N)C(=O)Nc2nc(-c3ccccc3)cs2)cc(C#N)c1O` [Preparative Example 268, (E)-2-cyano-3-(3-cyano-4-hydroxy-5-methoxyphenyl)-N-(4-phenylthiazol-2-yl)acrylamide], the IC50 fell in the range of 10 to 90 µM.

`N#C/C(=C\c1cc(Cl)c(O)c(Cl)c1)C(=O)Nc1nc(Cc2ccccc2)cs1` [Preparative Example 275, (E)-N-(4-benzylthiazol-2-yl)-2-cyano-3-(3,5-dichloro-4-hydroxyphenyl)acrylamide]: the IC50 was in the range of 10 to 90 µM.

Molecule `CC(C)(C)c1ccc(-c2csc(NC(=O)/C(C#N)=C/c3cc(Cl)c(O)c(Cl)c3)n2)cc1` [Preparative Example 224, (E)-N-(4-(4-(tert-butyl)phenyl)thiazol-2-yl)-2-cyano-3-(3,5-dichloro-4-hydroxyphenyl)acrylamide] showed an IC50 of 2 to 10 µM.

`N#C/C(=C\c1ccc(O)c(O)c1)C(=O)Nc1ncc(-c2cnccn2)s1` [Preparative Example 262, (E)-2-cyano-3-(3,4-dihydroxyphenyl)-N-(5-(pyrazin-2-yl)thiazol-2-yl)acrylamide] displayed an IC50 of 10 to 90 µM.

Turning to `N#C/C(=C\c1ccc(O)c(O)c1)C(=O)Nc1nc(-c2ccccn2)c(-c2cnccn2)s1` [Preparative Example 263, (E)-2-cyano-3-(3,4-dihydroxyphenyl)-N-(5-(pyrazin-2-yl)-4-(pyridin-2-yl)thiazol-2-yl)acrylamide], the IC50 is under 2 µM.

In turn, `N#C/C(=C\c1cc(Br)c(O)c(Br)c1)C(=O)Nc1nc(-c2ncccc2F)cs1` [Preparative Example 251, (E)-2-cyano-3-(3,5-dibromo-4-hydroxyphenyl)-N-(4-(3-fluoropyridin-2-yl)thiazol-2-yl)acrylamide] displayed an IC50 of under 2 µM.

`N#C/C(=C\c1cc(Br)c(O)c(Br)c1)C(=O)Nc1nc(-c2ncc(N3CCOCC3)cc2F)cs1` [Preparative Example 271, (E)-2-cyano-3-(3,5-dibromo-4-hydroxyphenyl)-N-(4-(3-fluoro-5-morpholinopyridin-2-yl)thiazol-2-yl)acrylamide] gave an IC50 of under 2 µM.

Take `N#C/C(=C\c1cc(Br)c(O)c(Br)c1)C(=O)Nc1nc(Cc2ccccc2)cs1` [Preparative Example 276, (E)-N-(4-benzylthiazol-2-yl)-2-cyano-3-(3,5-dibromo-4-hydroxyphenyl)acrylamide]: the IC50 lay within 2 to 10 µM.

The molecule `N#C/C(=C\c1ccc(O)c(O)c1)C(=O)Nc1nc(-c2ccc(N3CCOCC3)nc2)cs1` [Preparative Example 265, (E)-2-cyano-3-(3,4-dihydroxyphenyl)-N-(4-(6-morpholinopyridin-3-yl)thiazol-2-yl)acrylamide] displayed an IC50 of 2 to 10 µM.

By IC50 is commonly meant the point on the concentration scale where inhibition reaches its midpoint. Read a high IC50 as a need for much substance.
